Experiment: Formation of metabolite in vivo after administration
Settings: Example 19 (a PDE4 inhibitor) formed when Example 14 is administered to a mammal
Experimental: For example, Example 19, (5-{(E)-2-(3-{6-[1-methyl-1-(methylsulfonyl)ethyl]-8-quinolinyl}phenyl)-1-[4-(methylsulfonyl)phenyl]ethenyl}-1,2,4-oxadiazol-3-yl)methanol: [drawing 2]
is administered. Accordingly, the present invention includes prodrugs that form PDE4 inhibitors in vivo as a metabolite after administering such prodrugs to a mammal. Further, this invention includes a method of treatment by a step of administering a prodrug to form in vivo an effective amount of a PDE4 inhibitor described by Formula I.

Cc1noc(/C(=C/c2cccc(-c3cc(C(C)(C)S(C)(=O)=O)cc4cccnc34)c2)c2ccc(S(C)(=O)=O)cc2)n1 [Example 14, 6-[1-methyl-1-(methylsulfonyl)ethyl]-8-[3-[(E)-2-[3-methyl-1,2,4-oxadiazol-5-yl]-2-[4-(methylsulfonyl)phenyl]ethenyl]phenyl]quinoline]
metabolite formed in vivo: formed in vivo as a metabolite

— patent US6740666B2, “Substituted 8-arylquinoline phosphodiesterase-4 inhibitors” (Merck & Co., Inc., priority 2000, dated 2004)
